Measured values as given in patent US7960397B2, “6,9-disubstituted purine derivatives and their use as cosmetics and cosmetic compositions” (Institute of Experimental Botany, Academy of Sciences of …, priority 2007, dated 2011).

Legend:
[1] = tested on: Amaranthus caudatus cotyledon/hypocotyl explants; experiment: Amaranthus bioassay (betacyanin content); design: species or system Amaranthus caudatus var. atropurpurea; conditions: for concentration with highest activity: betacyanin content after 48 h incubation, tested 10^−8 M to 10^−4 M; for Activity (%) [10^−5 mol · l^−1 BAP = 100%]: betacyanin content at the concentration with highest activity, 10^−5 M BAP = 100%
Description: Testing of novel compounds for typical cytokinin activity in Amaranthus bioassay. A standard Amaranthus bioassay was performed with several modifications. The seeds of Amaranthus caudatus var. atropurpurea were surface-sterilized in 10% (w/v) N-chlorobenzenesulfonamide for 10 min and washed 5 times with deionized water. They were placed in 14 cm Petri dishes containing paper tissues saturated with deionized water. After 72 h of cultivation at 25° C. in darkness, the roots of the seedlings were cut off. The explants, consisting of two cotyledons and hypocotyls, were placed in 5 cm Petri dishes onto two layers of filter paper soaked with 1 ml of the incubation medium containing 10 mmol of NA2HPO4—KH2PO4, pH 6.8, 5 mmol of tyrosine and the compound to be tested. There were 20 explants per dish. The procedure was carried out under a green safe light in a darkroom. […] The concentration of betacyanin was determined from the absorbencies at 537 nm and 620 nm as follows: DA=A537 nm−A620 nm. […] Relative activity of the compound at this concentration was calculated. The activity obtained for 10^−5 M 6-benzylaminopurine (BAP) was defined as 100%.
(§1) The compounds to be tested were dissolved in dimethylsulfoxide (DMSO) and the solution brought up to 10^−3 M with distilled water.

[2] = tested on: cytokinin-dependent tobacco callus Nicotiana tabacum L. cv. Wisconsin 38; experiment: Cytokinin activity in tobacco callus bioassay; assay type: cell-based; conditions: for concentration with highest activity: growth of tobacco callus, four weeks of cultivation, tested 10^−8 M to 10^−4 M; for Activity (%) [10^−5 mol · l^−1 BAP = 100%]: increase of fresh callus weight at the concentration with highest activity, 10^−5 M BAP = 100%
Description: Estimation of cytokinin biological activity of novel compounds in callus bioassay. Cytokinin-dependent tobacco callus Nicotiana tabacum L. cv. […] Subcultivation was carried out every three weeks. Fourteen days before the bioassay, the callus tissue was transferred to the media without the compound tested. The biological activity was determined from the increase of the fresh callus weight after four weeks of cultivation. Five replicates were prepared for each concentration of the compound tested and the entire test was repeated twice. […] The relative activity of the compound at this concentration was calculated (Table 8). […] The compounds to be tested were dissolved in dimethylsulfoxide (DMSO) and the solution brought up to 10^−3 M with distilled water. This stock solution was further diluted with the respective media used for the biotest to a concentration ranging from 10^−8 M to 10^−4 M.

excised wheat leaf tips = experiment: Antisenescence test, retention of chlorophyll in excised wheat leaf tips; design: species or system Triticum aestivum cv. Hereward; conditions: for activity (%) [10^−4 mol · l^−1 BAP = 100%]: retention of chlorophyll in excised wheat leaf tips at the concentration with highest activity, 10 replicate determinations; for concentration with highest activity: retention of chlorophyll in excised wheat leaf tips, tested range 10^−8 M to 10^−4 M, 96 h in the dark at 25° C.
Description: Testing of antisenescence properties of novel cytokinin compounds on wheat leaf segments. Seeds of winter wheat, Triticum aestivum cv. Hereward, were washed under running water for 24 hours and then sown on vermiculite soaked with the Knop's solution. They were placed in the grow chamber at 25° C. with a 16 h-8 h light period at 50 mmol.m^−2.s^−1. After 7 days, the first leaf was fully developed and the second leaf had started to grow. A 35 mm long tip section of the first leaf, was removed from each of 5 seedlings and trimmed slightly to a combined weight of 100 mg. The basal ends of the five leaf tips were placed in the wells of a microtiter polystyrene plate containing […] of the solution of the tested compound each. The entire plate was inserted into a plastic box lined with paper tissues soaked with distilled water to prevent leaf sections from drying out. After 96 h incubation in the dark at 25° C., the leaves were removed and chlorophyll was extracted by heating at 80° C. for 10 min in 5 ml of 80% ethanol (v/v). The sample volume was then restored to 5 ml by the addition of 80% ethanol (v/v). The absorbance of the extract was recorded at 665 nm. In addition, chlorophyll extracts from fresh leaves and leaf tips incubated in deionized water were measured. […] Relative activity of the compound at this concentration was calculated (Table 7). The activity obtained for 10^−4 M 6-benzylaminopurine (BAP) was defined as 100%. The values shown are means of five replicates and the whole experiment was repeated twice.
as §1

[3] = tested on: human diploid fibroblasts (HCA cells, HCA20, HCA40, HCA60); experiment: Senescent cells (β-galactosidase staining) in culture of human fibroblasts; assay type: cell-based
Description: In this example, human diploid fibroblasts (HCA cells of various passage levels: passage 20—designated HCA20; passage 40—designated HCA40; passage 60—designated HCA60) were stained for β-galactosidase activity. The medium used for the cell cultivation was removed, the cells were washed twice in […], and fixed in 2-3 ml of fixing solution comprised of a 2% formaldehyde and 0.2% glutaraldehyde in PBS. The cells were incubated at room temperature for 5 minutes, and then washed twice with PBS. The cells were subsequently incubated at 37° C.

SMILES	concentration with highest activity [1]	Activity (%) [10^−5 mol · l^−1 BAP = 100%] [1] [%]	concentration with highest activity [2]	Activity (%) [10^−5 mol · l^−1 BAP = 100%] [2] [%]	activity (%) [10^−4 mol · l^−1 BAP = 100%] (excised wheat leaf tips) [%]	concentration with highest activity (excised wheat leaf tips)	SENESCENT CELLS (%) HCA20 ([3]; human fibroblasts passage 20 (HCA20)) [%]	SENESCENT CELLS (%) HCA40 ([3]; human fibroblasts passage 40 (HCA40)) [%]	SENESCENT CELLS (%) HCA60 ([3]; human fibroblasts passage 60 (HCA60)) [%]
COc1cccc(CNc2ncnc3c2ncn3CCCCCl)c1O	10^−4 mol · l^−1	53							
Oc1ccc(CNc2ncnc3c2ncn3C2CCCCO2)c(O)c1 (stereo not shown)			10^−5 mol · l^−1	5					
Oc1ccc(O)c(CNc2ncnc3c2ncn3C2CCCCO2)c1 (stereo not shown)	10^−4 mol · l^−1	35.1	10^−5 mol · l^−1	20	15	10^−4 mol · l^−1			
COc1ccc(CNc2ncnc3c2ncn3C2CCCO2)cc1O (stereo not shown)	10^−4 mol · l^−1	32	10^−6 mol · l^−1	47	35	10^−4 mol · l^−1			
Oc1cc(O)cc(CNc2ncnc3c2ncn3C2CCCCO2)c1 (stereo not shown)	10^−5 mol · l^−1	53	10^−6 mol · l^−1	45	145	10^−4 mol · l^−1			
COc1cc(O)cc(OC)c1CNc1ncnc2c1ncn2C1CCCO1 (stereo not shown)	10^−4 mol · l^−1	7	10^−5 mol · l^−1	31	14	10^−4 mol · l^−1			
Cc1cc(Nc2ncnc3c2ncn3C2CCCO2)ccc1O (stereo not shown)	10^−4 mol · l^−1	6	10^−5 mol · l^−1	7	4	10^−4 mol · l^−1			
CCOC(C)n1cnc2c(NCCC(C)CO)ncnc21 (stereo not shown)	10^−4 mol · l^−1	85	10^−4 mol · l^−1	95	94	10^−4 mol · l^−1			
CC(CO)CCNc1ncnc2c1ncn2CCCCCl (stereo not shown)	10^−4 mol · l^−1	81	10^−4 mol · l^−1	84	89	10^−4 mol · l^−1			
COc1cc(CNc2ncnc3c2ncn3C2CCCO2)cc(OC)c1O (stereo not shown)	10^−4 mol · l^−1	2	10^−5 mol · l^−1	27	36	10^−4 mol · l^−1			
COc1cccc(CNc2ncnc3[nH]cnc23)c1O [2-hydroxy-3-methoxybenzylamino / H, reference compound]	10^−4 mol · l^−1	19			34	10^−4 mol · l^−1			
Oc1ccccc1CNc1ncnc2c1ncn2CCCCCl [2-hydroxybenzylamino / 4-chlorobutyl]	10^−4 mol · l^−1	47.5			47.5	10^−4 mol · l^−1			
Oc1cc(O)cc(CNc2ncnc3[nH]cnc23)c1 [3,5-dihydroxybenzylamino / H, reference compound]	10^−5 mol · l^−1	53	10^−6 mol · l^−1	39	134	10^−4 mol · l^−1			
CCOC(C)n1cnc2c(NCc3cccc(O)c3)ncnc21 (stereo not shown) [3-hydroxybenzylamino / 1-ethoxyethyl]	10^−4 mol · l^−1	108.2	10^−4 mol · l^−1	109.4	108.2	10^−4 mol · l^−1			
Oc1cccc(CNc2ncnc3c2ncn3CCCCCl)c1 [3-hydroxybenzylamino / 4-chlorobutyl]	10^−4 mol · l^−1	102.5	10^−4 mol · l^−1	111.6	102.5	10^−4 mol · l^−1			
Cc1cc(CNc2ncnc3c2ncn3C2CCCO2)ccc1O (stereo not shown) [4-hydroxy-3-methylbenzylamino / tetrahydrofuran-2-yl]	10^−4 mol · l^−1	2	10^−5 mol · l^−1	12	1.4	10^−4 mol · l^−1			
CC(CO)CCNc1ncnc2[nH]cnc12 (stereo not shown) [4-hydroxy-3-methylbutylamino / H, reference compound]	10^−4 mol · l^−1	75	10^−5 mol · l^−1	83.2	89	10^−4 mol · l^−1			
Cc1cc(CNc2ncnc3c2ncn3C2CCCO2)ccc1O (stereo not shown) [4-hydroxy-5-methylbenzylamino / tetrahydrofuran-2-yl]	10^−4 mol · l^−1	22	10^−5 mol · l^−1	2	17	10^−4 mol · l^−1			
Oc1ccc(Nc2ncnc3c2ncn3C2CCCO2)cc1 (stereo not shown) [4-hydroxyanilino / tetrahydrofuran-2-yl]	10^−4 mol · l^−1	22	10^−5 mol · l^−1	10	28	10^−4 mol · l^−1			
Oc1ccc(Nc2ncnc3c2ncn3C2CCCCO2)cc1 (stereo not shown) [4-hydroxyanilino / tetrahydropyran-2-yl, 6-(4-hydroxyanilino)-9-(tetrahydropyran-2-yl)-purine]	10^−4 mol · l^−1	32	10^−5 mol · l^−1	22			4	6	16
